Results from PubChem BioAssay (NCI).
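The compound was tested at five concentrations on cells cultured in 96-well plates, with a 48-hour exposure period. GI50 is the concentration that inhibits growth by half. TGI denotes the concentration required for complete inhibition of growth.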

Columns and labels:
Test in all cases: DTP human tumour cell line panel, 48 h; in the data active = GI50 below about 0.43 µM; inactive = the rest
[1] = test system: 786-0 renal
[2] = test system: A498 renal
[3] = test system: A549 NSCLC
[4] = test system: ACHN renal
[5] = test system: BT-549 breast
[6] = test system: CAKI-1 renal
[7] = test system: CCRF-CEM leukemia
[8] = test system: COLO 205 colon
[9] = test system: DU-145 prostate
[10] = test system: EKVX NSCLC
[11] = test system: HCC-2998 colon
[12] = test system: HCT-116 colon
[13] = test system: HCT-15 colon
[14] = test system: HL-60(TB) leukemia
[15] = test system: HOP-62 NSCLC
[16] = test system: HOP-92 NSCLC
[17] = test system: HS 578T breast
[18] = test system: HT29 colon
[19] = test system: IGROV1 ovarian
[20] = test system: K-562 leukemia
[21] = test system: KM12 colon
[22] = test system: LOX IMVI melanoma
[23] = test system: M14 melanoma
[24] = test system: MALME-3M melanoma
[25] = test system: MCF7 breast
[26] = test system: MDA-MB-231 breast
[27] = test system: MDA-MB-435
[28] = test system: MOLT-4 leukemia
[29] = test system: NCI-H226 lung
[30] = test system: NCI-H23 lung
[31] = test system: NCI-H460 lung
[32] = test system: NCI-H522 lung
[33] = test system: NCI/ADR-RES ovarian
[34] = test system: OVCAR-3 ovarian
[35] = test system: OVCAR-4 ovarian
[36] = test system: OVCAR-5 ovarian
[37] = test system: OVCAR-8 ovarian
[38] = test system: PC-3 prostate
[39] = test system: RPMI-8226 leukemia
[40] = test system: RXF 393 renal
[41] = test system: SF-268 CNS
[42] = test system: SF-295 CNS
[43] = test system: SF-539 CNS
[44] = test system: SK-MEL-2 melanoma
[45] = test system: SK-MEL-28 melanoma
[46] = test system: SK-MEL-5 melanoma
[47] = test system: SK-OV-3 ovarian
[48] = test system: SN12C renal
[49] = test system: SNB-19 CNS
[50] = test system: SNB-75 CNS
[51] = test system: SW-620 colon
[52] = test system: T-47D breast
[53] = test system: TK-10 renal
[54] = test system: U251 CNS
[55] = test system: UACC-257 melanoma
[56] = test system: UACC-62 melanoma
[57] = test system: UO-31 renal

COc1ccc(-c2nc(C(=O)c3ccccc3)n(CC(=O)c3ccc(Cl)cc3)c2-c2ccc(OC)cc2)cc1
> 100 µM: TGI [1] | TGI [2] | TGI [3] | TGI [4] | TGI [5] | TGI [6] | TGI [7] | TGI [8] | TGI [9] | TGI [10] | TGI [11] | TGI [12] | TGI [13] | TGI [14] | TGI [15] | TGI [16] | TGI [17] | TGI [18] | TGI [19] | TGI [20] | TGI [21] | TGI [22] | TGI [23] | TGI [24] | TGI [25] | TGI [26] | TGI [27] | TGI [28] | TGI [29] | TGI [30] | TGI [31] | TGI [32] | TGI [33] | TGI [34] | TGI [35] | TGI [36] | TGI [37] | TGI [38] | TGI [39] | TGI [40] | TGI [41] | TGI [42] | TGI [43] | TGI [44] | TGI [45] | TGI [46] | TGI [47] | TGI [48] | TGI [49] | TGI [50] | TGI [51] | TGI [52] | TGI [53] | TGI [54] | TGI [55] | TGI [56] | TGI [57]
inactive: GI50 [1] > 100 µM | GI50 [2] > 100 µM | GI50 [3] > 100 µM | GI50 [4] > 100 µM | GI50 [5] 85.6 µM | GI50 [6] > 100 µM | GI50 [7] > 100 µM | GI50 [8] > 100 µM | GI50 [9] > 100 µM | GI50 [10] > 100 µM | GI50 [11] > 100 µM | GI50 [12] > 100 µM | GI50 [13] > 100 µM | GI50 [14] 46 µM | GI50 [15] > 100 µM | GI50 [16] > 100 µM | GI50 [17] > 100 µM | GI50 [18] > 100 µM | GI50 [19] > 100 µM | GI50 [20] > 100 µM | GI50 [21] > 100 µM | GI50 [22] > 100 µM | GI50 [23] > 100 µM | GI50 [24] > 100 µM | GI50 [25] > 100 µM | GI50 [26] > 100 µM | GI50 [27] > 100 µM | GI50 [28] > 100 µM | GI50 [29] > 100 µM | GI50 [30] > 100 µM | GI50 [31] > 100 µM | GI50 [32] > 100 µM | GI50 [33] > 100 µM | GI50 [34] > 100 µM | GI50 [35] > 100 µM | GI50 [36] > 100 µM | GI50 [37] > 100 µM | GI50 [38] > 100 µM | GI50 [39] > 100 µM | GI50 [40] > 100 µM | GI50 [41] > 100 µM | GI50 [42] > 100 µM | GI50 [43] > 100 µM | GI50 [44] > 100 µM | GI50 [45] > 100 µM | GI50 [46] > 100 µM | GI50 [47] > 100 µM | GI50 [48] > 100 µM | GI50 [49] > 100 µM | GI50 [50] > 100 µM | GI50 [51] > 100 µM | GI50 [52] > 100 µM | GI50 [53] > 100 µM | GI50 [54] > 100 µM | GI50 [55] > 100 µM | GI50 [56] > 100 µM | GI50 [57] > 100 µM
